Test results as given in patent US20250346782A1 (W. L. Gore & Associates, Inc., priority 2022, published 2025).

Legend:
[1] = Nitric oxide (NO) release, Berkeley nitric oxide test strips (Evaluation Method Ai); format: physicochemical; details: 37° C.; for onset of release of NO from the coating / time at which steady state of NO release / nitrite anion concentration is reached: coating of compound alone on ePTFE film, PBS 10 mM with 100 μM EDTA; for delayed release of NO from the coating / time at which steady state concentration of nitrite anion is reached: coating with VDF-HFP fluoropolymer on ePTFE film, PBS
Protocol: The ability of a chemical entity as described herein, or surface having a coating comprising a chemical entity as described herein, to release nitric oxide (NO) is assessed using commercially available Berkely nitric oxide test strips (“Berkeley Life Nitric Oxide Saliva Test Strips”). Instructions for use for such test strips are provided with the packaging of the Berkely nitric oxide test strips, and additionally are described in WO2013/023217A1 and WO2014/039794A2 (incorporated herein by reference).The test strips provide a semi-quantitative measure of NO-derived analytes (primarily aqueous nitrite anion) rather than NO itself, because as is known to the art (Ignarro et al., 1993), aqueous NO has a very short half-life of only seconds, whereas aqueous nitrite anion (which derives from aqueous NO) has a half-life of several hours. As such, the nitrite anion is an appropriate surrogate to measure aqueous NO concentrations. The test strips comprise a nitrite detection pad containing dry chemical reagents responsive to different nitric oxide analytes, thereby, indicating concentrations of nitric oxide. The test strips are capable of detecting a concentration range of the nitric oxide analyte from 0 to 400 μmol/L nitrite with visibly distinct intensities of colorimetric sub-ranges expressed as a red colour (i.e., approximately 700 nm wavelength) of increasing intensity, qualitatively corresponding to micromolarity, specifically, but not limited to: 0 μM, 1 μM to 25 μM, 25 μM to 100 μM, 100 μM to 200 μM, 200 μM to 350 μM, and greater than 400 μM nitrite.
The surface having a coating to be assessed is submerged in a test solution of PBS, 10.0 mM, pH 7.4, with 100 μM EDTA. NO concentration is assessed at given timepoints by dipping the test strip in the solution. After 5 seconds, the test strip is removed, the strip is folded over and the sample pad is gently pressed against the test pad and held for 10 seconds. The ends are separated and compared to the Berkeley Test Nitric Oxide Scale, where the visibly distinct colorimetric sub-ranges comprise 6 subjective levels of intensity of red wavelengths (i.e., approximately 700 nm wavelength), corresponding to 0 μM, 25 μM, 100 μM, 200 μM, 350 μM, and 400 μM of nitric oxide-derived analytes, depending upon the qualitative intensity of red subjectively observed by a user. […] As shown in the Examples below, because each strip is assigned to one of the 6 subjective intensity levels (the sixth being no response), the resulting NO release plot has discrete jumps rather than a continuous curve, although in practice continuous release is expected to be occurring.
In separate experiments, chloroform solutions of S-nitrosothiol-containing compound 16 (Example 19) and compound 17 (Example 20) were deposited dropwise onto ePTFE films secured on embroidery hoops, allowing the solvents to evaporate as the solutions were deposited. Once the solvents had evaporated and the resulting coatings were dry, 10 mL of a PBS buffer solution comprising 10 mM phosphate buffered saline with 100 μM EDTA, was poured over the individual coated films in round, polyethylene containers with screw-cap lids and placed in a 37° C. water bath. The PBS buffer solutions were tested periodically for NO release according to Evaluation Method Ai. The NO release profile for the film coated with compound 16 is shown in FIG. 4, and for the film coated with compound 17, in FIG. 5.
In separate experiments, acetone solutions of 50 mg of the S-nitrosothiol-containing compound 16 (Example 19), compound 18 (Example 22), and copolymer 20 (Example 23) were added to individual mixtures of 200 mg of VDF-HFP fluoropolymer in 10 mL of acetone. The green mixtures were then poured onto 3-inch disks of ePTFE films secured on embroidery hoops, and the solvents evaporated under a stream of argon. […]

[2] = as above; format: physicochemical; details: PBS, 37° C.
[3] = Example 30, FIG. 12: silicone coating on ePTFE film
[4] = coating with VDF-HFP fluoropolymer on Pebax nylon film
[5] = coating with VDF-HFP fluoropolymer on ePE film
[6] = coating with VDF-HFP fluoropolymer on stainless steel foil

SMILES | onset of release of NO from the coating [1] | time at which steady state of NO release / nitrite anion concentration is reached [1] | delayed release of NO from the coating [1] | time at which steady state concentration of nitrite anion is reached [1] | onset of release of NO from the coating [2, 3] | time at which steady state concentration of nitrite anion is reached [2, 3] | delayed release of NO from the coating [2, 4] | time at which steady state concentration of nitrite anion is reached [2, 4] | delayed release of NO from the coating [2, 5] | time at which steady state concentration of nitrite anion is reached [2, 5] | delayed release of NO from the coating [2, 6] | time at which steady state concentration of nitrite anion is reached [2, 6]
CC(C)(SN=O)C(NC(=O)CCCCC(=O)NC(C(=O)Nc1ccccc1)C(C)(C)SN=O)C(=O)Nc1ccccc1 (stereo not shown) [Compound 17, S,S′-((adipoylbis(azanediyl))bis(2-methyl-4-oxo-4-(phenylamino)butane-3,2-diyl)) dinitrothioite] | immediate release | 7 days |  |  |  |  |  |  |  |  |  | 
CC(C)(SN=O)C(NC(=O)CCCCC(=O)NC(C(=O)NCc1ccccc1)C(C)(C)SN=O)C(=O)NCc1ccccc1 (stereo not shown) [Compound 16] | immediate release | 5 days | 2 days | 8 days |  |  |  |  |  |  |  | 
CC(C)(SN=O)C(NC(=O)c1cc(C(=O)NC(C(=O)NCc2ccccc2)C(C)(C)SN=O)cc(C(=O)NC(C(=O)NCc2ccccc2)C(C)(C)SN=O)c1)C(=O)NCc1ccccc1 (stereo not shown) [Compound 18, S,S′,S″-(((benzene-1,3,5-tricarbonyl)tris(azanediyl))tris(4-(benzylamino)-2-methyl-4-oxobutane-3,2-diyl)) trinitrothioite] |  |  | 2 days | 12 days | immediate first release | 7 days | 4 days | 13 days | 2 days | 15 days | 9 days | 14 days
